molecular target: Full length human TBK1 (Homo sapiens (Human), UniProt Q9UHD2); experiment: Inhibition of TBK1 Enzyme (Example A); format: biochemical; settings: -log(IC50), IC50 molar; 3 nM TBK1, 25 μM ATP, 60 min RT
Procedure, shortened: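 Full-length N-His human TBK1 from Sf9 baculovirus was tested with 11-point 2.5-fold dilutions (1% DMSO) in Hepes pH 7.4, MgCl2, EDTA, Brij, DTT. After 60 min RT and EDTA quench, microfluidic conversion was fitted and reported as pIC50.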

Sequence of Full length human TBK1 (Q9UHD2 whole entry): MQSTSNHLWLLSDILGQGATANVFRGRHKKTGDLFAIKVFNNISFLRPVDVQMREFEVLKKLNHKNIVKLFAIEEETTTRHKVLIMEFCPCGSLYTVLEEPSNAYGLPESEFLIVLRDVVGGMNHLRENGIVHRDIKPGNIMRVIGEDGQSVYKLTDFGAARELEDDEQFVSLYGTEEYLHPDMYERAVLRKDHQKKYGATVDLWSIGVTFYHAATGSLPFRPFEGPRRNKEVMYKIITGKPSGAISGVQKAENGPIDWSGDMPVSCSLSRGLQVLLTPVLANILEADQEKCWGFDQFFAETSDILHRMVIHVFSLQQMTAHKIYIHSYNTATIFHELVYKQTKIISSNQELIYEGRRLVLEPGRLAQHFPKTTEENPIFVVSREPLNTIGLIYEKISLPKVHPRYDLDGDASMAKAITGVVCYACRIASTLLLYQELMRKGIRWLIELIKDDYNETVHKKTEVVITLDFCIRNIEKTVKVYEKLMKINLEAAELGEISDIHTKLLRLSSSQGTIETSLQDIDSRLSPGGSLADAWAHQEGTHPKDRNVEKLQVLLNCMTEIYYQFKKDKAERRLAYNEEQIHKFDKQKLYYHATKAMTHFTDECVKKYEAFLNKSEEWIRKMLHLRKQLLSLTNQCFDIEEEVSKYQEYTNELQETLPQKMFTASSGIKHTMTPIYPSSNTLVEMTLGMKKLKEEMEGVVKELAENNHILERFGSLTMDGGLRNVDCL

Row | SMILES | TBK1 Inhibition (pIC50)
1 | COCCN(C)C(=O)[C@H](C)Nc1cc(-c2cnc(NC(=O)C3CC3)cn2)ccc1C#N [Example 17, (S)-N-(5-(4-cyano-3-((1-((2-methoxyethyl)(methyl)amino)-1-oxopropan-2-yl)amino)phenyl)pyrazin-2-yl)cyclopropanecarboxamide] | 7.1
2 | CC(C)C(Nc1cc(-c2cnc(NC(=O)C3CC3)cn2)ccc1C#N)C(=O)N(C)C (stereo not drawn) [Example 5, N-(5-(4-cyano-3-((1-(dimethylamino)-3-methyl-1-oxobutan-2-yl)amino)phenyl)pyrazin-2-yl)cyclopropanecarboxamide] | 7.3
3 | CCNC(=O)CNc1cc(-c2cnc(NC(=O)C3CC3)cn2)ccc1C#N [Example 124, N-(5-(4-cyano-3-((2-(ethylamino)-2-oxoethyl)amino)phenyl)pyrazin-2-yl)cyclopropanecarboxamide] | 6.5
4 | N#Cc1ncc(-c2cnc(NC(=O)C3CC3)cn2)cc1NCC(=O)N1C[C@H](CO)C[C@H]1C(F)(F)F [Example 113, N-(5-(6-cyano-5-((2-((2S,4R)-4-(hydroxymethyl)-2-(trifluoromethyl)pyrrolidin-1-yl)-2-oxoethyl)amino)pyridin-3-yl)pyrazin-2-yl)cyclopropanecarboxamide] | 7.6
5 | CC[C@@H](Nc1cc(-c2cnc(NC(=O)C3CC3)cn2)ccc1C#N)C(=O)N(C)C [Example 26, (R)-N-(5-(4-cyano-3-((1-(dimethylamino)-1-oxobutan-2-yl)amino)phenyl)pyrazin-2-yl)cyclopropanecarboxamide] | 8.5
6 | CC(C)(O)CN(CC(F)(F)F)C(=O)CNc1cc(-c2cnc(NC(=O)C3CC3)cn2)cnc1C#N [Example 111, N-(5-(6-cyano-5-((2-((2-hydroxy-2-methylpropyl)(2,2,2-trifluoroethyl)amino)-2-oxoethyl)amino)pyridin-3-yl)pyrazin-2-yl)cyclopropanecarboxamide] | 6.6
7 | CN(CC(F)(F)F)C(=O)CNc1cc(-c2cnc(NC(=O)C3CC3)cn2)cnc1C#N [Example 40, N-(5-(6-cyano-5-((2-(methyl(2,2,2-trifluoroethyl)amino)-2-oxoethyl)amino)pyridin-3-yl)pyrazin-2-yl)cyclopropanecarboxamide] | 7.5
8 | N#Cc1ncc(-c2cnc(NC(=O)C3CC3)cn2)cc1NCC(=O)N(CCO)CC(F)F [Example 72, N-(5-(6-cyano-5-((2-((2,2-difluoroethyl)(2-hydroxyethyl)amino)-2-oxoethyl)amino)pyridin-3-yl)pyrazin-2-yl)cyclopropanecarboxamide] | 7.8
9 | N#Cc1ncc(-c2cnc(NC(=O)C3CC3)cn2)cc1NCC(=O)N1CCCC1CF (stereo not drawn) [Example 143, N-(5-(6-cyano-5-((2-(2-(fluoromethyl)pyrrolidin-1-yl)-2-oxoethyl)amino)pyridin-3-yl)pyrazin-2-yl)cyclopropanecarboxamide] | 7.0
10 | CN(C(=O)CNc1cc(-c2cnc(NC(=O)C3CC3)cn2)ccc1C#N)C1CC1 [Example 25, N-(5-(4-cyano-3-((2-(cyclopropyl(methyl)amino)-2-oxoethyl)amino)phenyl)pyrazin-2-yl)cyclopropanecarboxamide] | 7.4
11 | N#Cc1ncc(-c2cnc(NC(=O)C3CC3)cn2)cc1NCC(=O)N(CCCO)CC(F)(F)F [Example 90, N-(5-(6-cyano-5-((2-((3-hydroxypropyl)(2,2,2-trifluoroethyl)amino)-2-oxoethyl)amino)pyridin-3-yl)pyrazin-2-yl)cyclopropanecarboxamide] | 5.6
12 | COC1CN(C(=O)CNc2cc(-c3cnc(NC(=O)C4CC4)cn3)ccc2C#N)C1 [Example 22, N-(5-(4-cyano-3-((2-(3-methoxyazetidin-1-yl)-2-oxoethyl)amino)phenyl)pyrazin-2-yl)cyclopropanecarboxamide] | 6.0
13 | N#Cc1ccc(-c2cnc(NC(=O)C3CC3)cn2)cc1NCC(=O)N1CCC1 [Example 21, N-(5-(3-((2-(azetidin-1-yl)-2-oxoethyl)amino)-4-cyanophenyl)pyrazin-2-yl)cyclopropanecarboxamide] | 6.6
14 | CC1CC1C(=O)Nc1cnc(-c2cnc(C#N)c(NCC(=O)N(C)C)c2)cn1 (stereo not drawn) [Example 145, N-(5-(6-cyano-5-((2-(dimethylamino)-2-oxoethyl)amino)pyridin-3-yl)pyrazin-2-yl)-2-methylcyclopropanecarboxamide] | 7.1
15 | CN(CC(F)(F)F)C(=O)CNc1cc(-c2cnc(NC(=O)C3CC3)cn2)ccc1C#N [Example 126, N-(5-(4-cyano-3-((2-(methyl(2,2,2-trifluoroethyl)amino)-2-oxoethyl)amino)phenyl)pyrazin-2-yl)cyclopropanecarboxamide] | 7.6

Second part, the molecule after the results:

Row | TBK1 Inhibition (pIC50) | SMILES
16 | 5.8 | C[C@@H](Nc1cc(-c2cnc(NC(=O)C3CC3)cn2)cnc1C#N)C(=O)N(C)C [Example 30, (R)-N-(5-(6-cyano-5-((1-(dimethylamino)-1-oxopropan-2-yl)amino)pyridin-3-yl)pyrazin-2-yl)cyclopropanecarboxamide]
17 | 7.6 | C[C@H](Nc1cc(-c2cnc(NC(=O)C3CC3)cn2)cnc1C#N)C(=O)N(C)[C@H](C)C#N [Example 88, N-(5-(6-cyano-5-(((S)-1-(((R)-1-cyanoethyl)(methyl)amino)-1-oxopropan-2-yl)amino)pyridin-3-yl)pyrazin-2-yl)cyclopropanecarboxamide]
18 | 7.3 | C[C@H](Nc1cc(-c2cnc(NC(=O)C3CC3)cn2)cnc1C#N)C(=O)NCC(F)(F)F [Example 116, (S)-N-(5-(6-cyano-5-((1-oxo-1-((2,2,2-trifluoroethyl)amino)propan-2-yl)amino)pyridin-3-yl)pyrazin-2-yl)cyclopropanecarboxamide]
19 | 8.1 | C[C@H](Nc1cc(-c2cnc(NC(=O)C3CC3CO)cn2)cnc1C#N)C(=O)N(C)CC(F)F (stereo partly drawn) [Example 146, N-(5-(6-cyano-5-(((S)-1-((2,2-difluoroethyl)(methyl)amino)-1-oxopropan-2-yl)amino)pyridin-3-yl)pyrazin-2-yl)-2-(hydroxymethyl)cyclopropanecarboxamide]
20 | 7.6 | C[C@H](Nc1cc(-c2cnc(NC(=O)C3CC3)cn2)cc(F)c1C#N)C(=O)N(C)C [Example 137, (S)-N-(5-(4-cyano-3-((1-(dimethylamino)-1-oxopropan-2-yl)amino)-5-fluorophenyl)pyrazin-2-yl)cyclopropanecarboxamide]
21 | 6.8 | C[C@H](Nc1cc(-c2cnc(NC(=O)C3CC3)cn2)cnc1C#N)C(=O)NC1CC1(F)F (stereo partly drawn) [Example 118, N-(5-(6-cyano-5-(((2S)-1-((2,2-difluorocyclopropyl)amino)-1-oxopropan-2-yl)amino)pyridin-3-yl)pyrazin-2-yl)cyclopropanecarboxamide]
22 | 7.8 | C[C@H](Nc1cc(-c2cnc(NC(=O)[C@@H]3C[C@H]3C)cn2)cnc1C#N)C(=O)N(C)C [Example 107, (1R,2R)-N-(5-(6-cyano-5-(((S)-1-(dimethylamino)-1-oxopropan-2-yl)amino)pyridin-3-yl)pyrazin-2-yl)-2-methylcyclopropanecarboxamide]
23 | 7.4 | C[C@H](Nc1cc(-c2cnc(NC(=O)[C@H]3C[C@@H]3C)cn2)cnc1C#N)C(=O)N(C)C [Example 106, (1S,2S)-N-(5-(6-cyano-5-(((S)-1-(dimethylamino)-1-oxopropan-2-yl)amino)pyridin-3-yl)pyrazin-2-yl)-2-methylcyclopropanecarboxamide]
24 | 7.0 | C[C@H](Nc1cc(-c2cnc(NC(=O)C3CC3)cn2)cnc1C#N)C(=O)NCC(C)(F)F [Example 117, (S)-N-(5-(6-cyano-5-((1-((2,2-difluoropropyl)amino)-1-oxopropan-2-yl)amino)pyridin-3-yl)pyrazin-2-yl)cyclopropanecarboxamide]
25 | 7.1 | CN(C)C(=O)C(CO)Nc1cc(-c2cnc(NC(=O)C3CC3)cn2)cnc1C#N [Example 128, (S)-N-(5-(6-cyano-5-((1-(dimethylamino)-3-hydroxy-1-oxopropan-2-yl)amino)pyridin-3-yl)pyrazin-2-yl)cyclopropanecarboxamide]
26 | 7.4 | CC[C@H](Nc1cc(-c2cnc(NC(=O)C3CC3)cn2)cnc1C#N)C(=O)N(C)CC#N [Example 51, (S)-N-(5-(6-cyano-5-((1-((cyanomethyl)(methyl)amino)-1-oxobutan-2-yl)amino)pyridin-3-yl)pyrazin-2-yl)cyclopropanecarboxamide]
27 | 7.7 | C[C@H](Nc1cc(-c2cnc(NC(=O)[C@@H]3C[C@@H]3C)cn2)cnc1C#N)C(=O)N(C)C [Example 108, (1R,2S)-N-(5-(6-cyano-5-(((S)-1-(dimethylamino)-1-oxopropan-2-yl)amino)pyridin-3-yl)pyrazin-2-yl)-2-methylcyclopropanecarboxamide]
28 | 6.8 | COCC(Nc1cc(-c2cnc(NC(=O)C3CC3)cn2)cnc1C#N)C(=O)N(C)C (stereo not drawn) [Example 42, N-(5-(6-cyano-5-((1-(dimethylamino)-3-methoxy-1-oxopropan-2-yl)amino)pyridin-3-yl)pyrazin-2-yl)cyclopropanecarboxamide]
29 | 8.0 | C[C@H](Nc1cc(-c2cnc(NC(=O)C3CC3)cn2)cnc1C#N)C(=O)N(C)CCF [Example 54, (S)-N-(5-(6-cyano-5-((1-((2-fluoroethyl)(methyl)amino)-1-oxopropan-2-yl)amino)pyridin-3-yl)pyrazin-2-yl)cyclopropanecarboxamide]

same assay, conditions: -log(IC50), IC50 molar; 3 nM TBK1, 25 μM ATP, 60 min RT; read-out: TBK1 Inhibition (pIC50) (converted)

Row | IC50 | SMILES
30 | 398 nM | CC[C@H](Nc1cc(-c2cnc(NC(=O)C3CC(C)(O)C3)cn2)cnc1C#N)C(=O)N(C)C (stereo partly drawn) [Example 147, (S)-N-(5-(6-cyano-5-((1-(dimethylamino)-1-oxobutan-2-yl)amino)pyridin-3-yl)pyrazin-2-yl)-3-hydroxy-3-methylcyclobutanecarboxamide]
